In ChEMBL document CHEMBL1153460, “Potent aza-peptide derived inhibitors of HCV NS3 protease” (Bioorg Med Chem Lett, 2009):
pKi: −log10 of the molar value. Activity calls are given as the source filed them. The rule behind the calls is not given here. Starred links: 1 amine or outer side, 2 acyl side, 3 side chain; linkers in the order of their positions; H or OH if unused. Non-standard residues stand in square brackets, D forms with d. Residues, ends and D or L forms follow the SMILES beside them. *: point of attachment. Pro(4R-OPh) = O=C(O)[C@@H]1C[C@@H](Oc2ccccc2)CN1; NH(1R-phenylethyl) = C[C@@H](N*)c1ccccc1; azaNva = CCCN(N[*:1])C(=O)[*:2]; Aad = N[C@@H](CCCC(=O)O)C(=O)O; Tle = CC(C)(C)[C@H](N)C(=O)O

How the values were obtained:
[1] = Inhibition of HCV NS3 protease by continuous spectrophotometric assay; design: species or system Hepacivirus hominis
Hepatitis C virus = experiment: Antiviral activity against HCV by replicon-based cellular assay; assay type: functional, Hepacivirus hominis
[2] = Selectivity ratio, Ki for human neutrophil elastase to Ki for HCV NS3 protease

SMILES	pKi [1]	EC90 (Hepatitis C virus) [µM]	EC90 (Hepatitis C virus; Hepacivirus hominis)	Ratio Ki [2]
CCCN(NC(=O)[C@@H]1[C@@H]2[C@H](CN1C(=O)[C@@H](NC(=O)N[C@H](CN(C)S(C)(=O)=O)C(C)(C)C)C(C)(C)C)C2(C)C)C(=O)N[C@H](C)c1ccccc1	6.96	0.7	–	–
CCCN(NC(=O)[C@@H]1[C@@H]2[C@H](CN1C(=O)[C@@H](NC(=O)N[C@H](CN(C)S(=O)(=O)c1cccnc1)C(C)(C)C)C1CCCCC1)C2(C)C)C(=O)N[C@H](C)c1ccccc1	6.64	–	inactive	–
CC(C)(C)NC(=O)N[C@H](C(=O)N1C[C@H]2[C@@H]([C@H]1C(=O)NC(CC1CCC1)C(=O)C(N)=O)C2(C)C)C(C)(C)C (stereo not given in full) [BOCEPREVIR]	7.85	0.35	–	2200
C[C@@H](NC(=O)N(CC1CC1)NC(=O)[C@@H]1[C@@H]2[C@H](CN1C(=O)[C@@H](NC(=O)N[C@H](CN1C(=O)CC(C)(C)CC1=O)C(C)(C)C)C(C)(C)C)C2(C)C)c1ccccc1	6.70	–	inactive	–
CCCN(NC(=O)[C@@H]1[C@@H]2[C@H](CN1C(=O)[C@@H](NC(=O)N[C@H](CN1C(=O)CC(C)(C)CC1=O)C(C)(C)C)C(C)(C)C)C2(C)C)C(=O)N[C@H](C)c1ccccc1	7.19	0.3	–	960
C[C@@H](NC(=O)N(CC1CC1)NC(=O)[C@@H]1[C@@H]2[C@H](CN1C(=O)[C@@H](NC(=O)N[C@H](CN1C(=O)C3CCC(C3)C1=O)C(C)(C)C)C(C)(C)C)C2(C)C)c1ccccc1	6.60	1.1	–	–
CCCN(NC(=O)[C@@H]1C[C@@H](Oc2ccccc2)CN1C(=O)[C@@H](NC(=O)[C@@H](NC(=O)[C@H](CCCC(=O)O)NC(=O)[C@H](CCCC(=O)O)NC(C)=O)C(C)C)C(C)(C)C)C(=O)N[C@H](C)c1ccccc1 (Ac-[Aad][Aad]V[Tle][Pro(4R-OPh)][azaNva]-{NH(1R-phenylethyl)})	7.11	–	–	–

Second part, the molecule after the results:

pKi [1]	EC90 (Hepatitis C virus) [µM]	EC90 (Hepatitis C virus; Hepacivirus hominis)	Ratio Ki [2]	SMILES
5.51	24	–	–	CCCN(NC(=O)[C@@H]1[C@@H]2[C@H](CN1C(=O)[C@@H](NC(=O)N[C@H](CN1C(=O)C3CCC(C3)C1=O)C(C)(C)C)C(C)(C)C)C2(C)C)C(=O)OC(C)(C)C
6.14	3.5	–	–	CCCN(NC(=O)[C@@H]1[C@@H]2[C@H](CN1C(=O)[C@@H](NC(=O)N[C@H](CN1C(=O)C3CCC(C3)C1=O)C(C)(C)C)C(C)(C)C)C2(C)C)C(=O)CCc1ccccc1
5.80	8	–	–	CCCN(NC(=O)[C@@H]1[C@@H]2[C@H](CN1C(=O)[C@@H](NC(=O)N[C@H](CN1C(=O)C3CCC(C3)C1=O)C(C)(C)C)C(C)(C)C)C2(C)C)C(=O)NC(C)(C)C
7.49	0.25	–	–	CCCN(NC(=O)[C@@H]1[C@@H]2[C@H](CN1C(=O)[C@@H](NC(=O)N[C@H](CN1C(=O)C3CCC(C3)C1=O)C(C)(C)C)C(C)(C)C)C2(C)C)C(=O)N[C@H](C)c1ccccc1
5.52	15	–	–	CCCN(NC(=O)[C@@H]1[C@@H]2[C@H](CN1C(=O)[C@@H](NC(=O)N[C@H](CN1C(=O)C3CCC(C3)C1=O)C(C)(C)C)C(C)(C)C)C2(C)C)C(=O)C1CC1
5.89	16	–	–	CCCN(NC(=O)[C@@H]1[C@@H]2[C@H](CN1C(=O)[C@@H](NC(=O)N[C@H](CN1C(=O)C3CCC(C3)C1=O)C(C)(C)C)C(C)(C)C)C2(C)C)C(=O)NC1CCCCC1
6.02	2.4	–	–	CCCN(NC(=O)[C@@H]1[C@@H]2[C@H](CN1C(=O)[C@@H](NC(=O)N[C@H](CN1C(=O)C3CCC(C3)C1=O)C(C)(C)C)C(C)(C)C)C2(C)C)C(=O)Nc1ccccc1
4.28	–	inactive	–	CCCN(NC(=O)[C@@H]1[C@@H]2[C@H](CN1C(=O)[C@@H](NC(=O)N[C@H](CN1C(=O)C3CCC(C3)C1=O)C(C)(C)C)C(C)(C)C)C2(C)C)C(=O)c1ccccc1
4.66	–	inactive	–	CCCN(NC(=O)[C@@H]1[C@@H]2[C@H](CN1C(=O)[C@@H](NC(=O)N[C@H](CN1C(=O)C3CCC(C3)C1=O)C(C)(C)C)C(C)(C)C)C2(C)C)C(C)=O
6.12	6	–	–	CCCN(NC(=O)[C@@H]1[C@@H]2[C@H](CN1C(=O)[C@@H](NC(=O)N[C@H](CN1C(=O)C3CCC(C3)C1=O)C(C)(C)C)C(C)(C)C)C2(C)C)C(=O)NC1CC1
